# Measurements reported in PMC2635097 (Molecular pharmacology, 2008).
# “And” between values parts separate entries of the source, which are not always exact repeats. Equal entries are not always repeated.
# How the values were obtained:
# [1] = biological target: hKCa1.1 (Homo sapiens, UniProt Q12791); experiment: Selectivity patch-clamp, KCa1.1 currents; assay type: cell-based; details: 25 μM; 1 μM free Ca2+
# [2] = biological target: mKv1.1 (Mus musculus, UniProt P16388); experiment: Selectivity patch-clamp, Kv1.1 currents; assay type: cell-based; details: 25 μM
# [3] = biological target: mKv1.3 (Mus musculus, UniProt P16390); experiment: Selectivity patch-clamp, Kv1.3 currents; assay type: cell-based
# [4] = biological target: hKv1.5 (Homo sapiens, UniProt P22460); experiment: Selectivity patch-clamp, Kv1.5 currents; assay type: cell-based; details: 25 μM
# [5] = biological target: T1, rKv4.2 (Rattus norvegicus, UniProt Q63881); experiment: Selectivity patch-clamp, Kv4.2 currents; assay type: cell-based; details: 25 μM
# T1 sequence (Q63881 1-630): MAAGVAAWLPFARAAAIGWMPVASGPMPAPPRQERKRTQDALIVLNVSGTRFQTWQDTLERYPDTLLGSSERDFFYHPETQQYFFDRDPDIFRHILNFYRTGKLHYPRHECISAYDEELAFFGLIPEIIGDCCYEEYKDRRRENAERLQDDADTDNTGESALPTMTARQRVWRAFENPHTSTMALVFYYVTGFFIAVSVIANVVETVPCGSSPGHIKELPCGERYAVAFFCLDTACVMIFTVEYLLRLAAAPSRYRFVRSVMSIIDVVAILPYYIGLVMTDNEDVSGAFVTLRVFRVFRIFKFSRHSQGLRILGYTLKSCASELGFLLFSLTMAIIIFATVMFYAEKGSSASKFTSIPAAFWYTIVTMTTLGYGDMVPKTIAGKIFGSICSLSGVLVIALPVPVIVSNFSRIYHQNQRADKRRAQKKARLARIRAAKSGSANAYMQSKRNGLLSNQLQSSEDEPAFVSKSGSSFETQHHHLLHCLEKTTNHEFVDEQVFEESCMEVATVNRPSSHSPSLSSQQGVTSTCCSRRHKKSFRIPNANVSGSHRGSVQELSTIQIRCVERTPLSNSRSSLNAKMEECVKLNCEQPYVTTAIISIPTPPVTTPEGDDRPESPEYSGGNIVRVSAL
# [6] = biological target: T2, K2P2.1 (TREK-1) (Mus musculus, UniProt P97438); experiment: Selectivity patch-clamp, endothelial cell TREK-1 currents; assay type: cell-based; details: 25 μM
# T2 sequence (P97438 1-426): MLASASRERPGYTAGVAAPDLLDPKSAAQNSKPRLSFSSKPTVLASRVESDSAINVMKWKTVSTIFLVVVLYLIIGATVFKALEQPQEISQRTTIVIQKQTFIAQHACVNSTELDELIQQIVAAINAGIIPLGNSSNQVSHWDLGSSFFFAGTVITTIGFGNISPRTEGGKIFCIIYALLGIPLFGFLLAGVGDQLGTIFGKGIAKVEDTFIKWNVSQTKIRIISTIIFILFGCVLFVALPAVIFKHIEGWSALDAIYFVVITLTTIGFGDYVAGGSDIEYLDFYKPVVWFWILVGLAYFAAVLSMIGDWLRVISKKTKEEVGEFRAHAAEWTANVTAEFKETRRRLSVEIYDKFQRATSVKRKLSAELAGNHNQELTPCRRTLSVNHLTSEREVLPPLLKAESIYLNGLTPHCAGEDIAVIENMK
# [7] = biological target: hNav1.4 (Homo sapiens, UniProt P35499); experiment: Selectivity patch-clamp, Nav1.4 currents; assay type: cell-based; details: 25 μM
# [8] = biological target: Cav1.2 (Oryctolagus cuniculus, UniProt P15381); experiment: Selectivity patch-clamp, Cav1.2 currents; assay type: cell-based
# [9] = biological target: glutamate site of NMDA receptors (Rattus norvegicus, UniProt Q00959); experiment: NMDA receptor radioligand binding assay
# [10] = tested on: Jurkat E61 and MEL cells; experiment: Cytotoxicity assay; assay type: cell-based; details: concentrations up to 100 μM; 48 h
# [11] = Pharmacokinetics in rats; assay type: in vivo; details: rat; for peak total plasma concentration: 2 h
# [12] = Plasma protein binding by ultrafiltration; assay type: in vitro ADME, rat
# [13] = tested on: murine carotid artery; experiment: Pressure myography, EDHF-type dilation of carotid artery; parameters: species or system mouse
# [14] = tested on: wt and KCa3.1−/− mice; experiment: Telemetric blood pressure in normotensive mice; assay type: in vivo, mouse; details: for MAP over 24 h: mean ± SEM; for lowering of mean arterial pressure (MAP): over 24 h
# [15] = tested on: wt mice infused with Ang-II; experiment: Telemetric blood pressure in angiotensin-II-induced hypertension; assay type: in vivo, mouse; details: 30 mg/kg i.p.
# [16] = tested on: mice; experiment: Maximal electroshock; assay type: in vivo, mouse; details: 100 mg/kg i.p., 15 min, 30 min and 1 hour
# [17] = tested on: mice; assay type: in vivo, mouse; details: 100 mg/kg i.p., 15 min, 30 min and 1 hour
# [18] = logP; assay type: physicochemical
# [19] = biological target: Kv11.1 (HERG) (Homo sapiens, UniProt Q12809)
# [20] = male, Sprague-Dawley, plasma, iv, 10 mg/kg
# mKv1.1, sequence (P16388 whole entry): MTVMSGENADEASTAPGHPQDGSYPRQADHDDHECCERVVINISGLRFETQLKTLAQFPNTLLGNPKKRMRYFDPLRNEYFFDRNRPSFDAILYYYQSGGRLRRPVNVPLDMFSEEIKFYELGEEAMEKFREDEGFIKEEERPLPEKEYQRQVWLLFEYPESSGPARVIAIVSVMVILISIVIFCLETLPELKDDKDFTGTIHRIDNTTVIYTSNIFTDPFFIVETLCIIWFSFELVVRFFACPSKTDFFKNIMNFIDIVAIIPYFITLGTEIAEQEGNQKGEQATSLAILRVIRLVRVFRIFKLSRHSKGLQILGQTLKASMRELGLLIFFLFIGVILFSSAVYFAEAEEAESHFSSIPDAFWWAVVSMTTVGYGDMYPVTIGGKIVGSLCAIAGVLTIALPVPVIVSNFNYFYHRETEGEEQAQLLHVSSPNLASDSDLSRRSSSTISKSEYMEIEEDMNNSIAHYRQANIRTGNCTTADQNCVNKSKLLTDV
# Kv11.1 (HERG), sequence (Q12809 whole entry): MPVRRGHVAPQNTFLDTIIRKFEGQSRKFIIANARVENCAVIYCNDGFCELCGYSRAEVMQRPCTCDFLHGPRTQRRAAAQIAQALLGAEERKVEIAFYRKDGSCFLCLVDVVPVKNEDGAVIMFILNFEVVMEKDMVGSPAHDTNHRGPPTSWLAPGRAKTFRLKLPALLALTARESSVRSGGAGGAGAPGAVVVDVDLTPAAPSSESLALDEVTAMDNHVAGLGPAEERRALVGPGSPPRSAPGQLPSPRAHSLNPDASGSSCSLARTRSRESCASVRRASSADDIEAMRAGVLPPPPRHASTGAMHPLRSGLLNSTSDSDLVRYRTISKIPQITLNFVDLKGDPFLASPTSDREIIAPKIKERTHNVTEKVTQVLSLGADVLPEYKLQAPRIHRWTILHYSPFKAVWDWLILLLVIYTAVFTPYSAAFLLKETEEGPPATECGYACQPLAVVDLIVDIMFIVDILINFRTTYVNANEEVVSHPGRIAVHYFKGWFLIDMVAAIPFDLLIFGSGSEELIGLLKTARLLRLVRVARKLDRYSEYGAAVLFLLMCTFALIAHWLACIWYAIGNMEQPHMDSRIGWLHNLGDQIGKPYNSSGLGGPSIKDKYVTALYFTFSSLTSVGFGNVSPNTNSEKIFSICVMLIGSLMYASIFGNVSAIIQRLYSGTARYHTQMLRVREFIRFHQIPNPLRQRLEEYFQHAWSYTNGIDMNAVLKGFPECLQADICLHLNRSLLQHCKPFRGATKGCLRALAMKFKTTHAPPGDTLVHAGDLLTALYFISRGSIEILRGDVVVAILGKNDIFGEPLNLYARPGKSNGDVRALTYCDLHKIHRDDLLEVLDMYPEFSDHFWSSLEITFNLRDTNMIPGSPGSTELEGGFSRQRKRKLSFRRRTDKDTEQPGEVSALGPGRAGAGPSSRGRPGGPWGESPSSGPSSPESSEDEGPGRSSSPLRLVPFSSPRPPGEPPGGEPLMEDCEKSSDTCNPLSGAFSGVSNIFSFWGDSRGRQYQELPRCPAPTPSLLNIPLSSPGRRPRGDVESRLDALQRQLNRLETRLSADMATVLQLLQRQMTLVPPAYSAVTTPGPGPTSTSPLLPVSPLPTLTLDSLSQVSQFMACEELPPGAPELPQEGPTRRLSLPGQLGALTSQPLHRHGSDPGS
# Cav1.2, sequence (P15381 whole entry): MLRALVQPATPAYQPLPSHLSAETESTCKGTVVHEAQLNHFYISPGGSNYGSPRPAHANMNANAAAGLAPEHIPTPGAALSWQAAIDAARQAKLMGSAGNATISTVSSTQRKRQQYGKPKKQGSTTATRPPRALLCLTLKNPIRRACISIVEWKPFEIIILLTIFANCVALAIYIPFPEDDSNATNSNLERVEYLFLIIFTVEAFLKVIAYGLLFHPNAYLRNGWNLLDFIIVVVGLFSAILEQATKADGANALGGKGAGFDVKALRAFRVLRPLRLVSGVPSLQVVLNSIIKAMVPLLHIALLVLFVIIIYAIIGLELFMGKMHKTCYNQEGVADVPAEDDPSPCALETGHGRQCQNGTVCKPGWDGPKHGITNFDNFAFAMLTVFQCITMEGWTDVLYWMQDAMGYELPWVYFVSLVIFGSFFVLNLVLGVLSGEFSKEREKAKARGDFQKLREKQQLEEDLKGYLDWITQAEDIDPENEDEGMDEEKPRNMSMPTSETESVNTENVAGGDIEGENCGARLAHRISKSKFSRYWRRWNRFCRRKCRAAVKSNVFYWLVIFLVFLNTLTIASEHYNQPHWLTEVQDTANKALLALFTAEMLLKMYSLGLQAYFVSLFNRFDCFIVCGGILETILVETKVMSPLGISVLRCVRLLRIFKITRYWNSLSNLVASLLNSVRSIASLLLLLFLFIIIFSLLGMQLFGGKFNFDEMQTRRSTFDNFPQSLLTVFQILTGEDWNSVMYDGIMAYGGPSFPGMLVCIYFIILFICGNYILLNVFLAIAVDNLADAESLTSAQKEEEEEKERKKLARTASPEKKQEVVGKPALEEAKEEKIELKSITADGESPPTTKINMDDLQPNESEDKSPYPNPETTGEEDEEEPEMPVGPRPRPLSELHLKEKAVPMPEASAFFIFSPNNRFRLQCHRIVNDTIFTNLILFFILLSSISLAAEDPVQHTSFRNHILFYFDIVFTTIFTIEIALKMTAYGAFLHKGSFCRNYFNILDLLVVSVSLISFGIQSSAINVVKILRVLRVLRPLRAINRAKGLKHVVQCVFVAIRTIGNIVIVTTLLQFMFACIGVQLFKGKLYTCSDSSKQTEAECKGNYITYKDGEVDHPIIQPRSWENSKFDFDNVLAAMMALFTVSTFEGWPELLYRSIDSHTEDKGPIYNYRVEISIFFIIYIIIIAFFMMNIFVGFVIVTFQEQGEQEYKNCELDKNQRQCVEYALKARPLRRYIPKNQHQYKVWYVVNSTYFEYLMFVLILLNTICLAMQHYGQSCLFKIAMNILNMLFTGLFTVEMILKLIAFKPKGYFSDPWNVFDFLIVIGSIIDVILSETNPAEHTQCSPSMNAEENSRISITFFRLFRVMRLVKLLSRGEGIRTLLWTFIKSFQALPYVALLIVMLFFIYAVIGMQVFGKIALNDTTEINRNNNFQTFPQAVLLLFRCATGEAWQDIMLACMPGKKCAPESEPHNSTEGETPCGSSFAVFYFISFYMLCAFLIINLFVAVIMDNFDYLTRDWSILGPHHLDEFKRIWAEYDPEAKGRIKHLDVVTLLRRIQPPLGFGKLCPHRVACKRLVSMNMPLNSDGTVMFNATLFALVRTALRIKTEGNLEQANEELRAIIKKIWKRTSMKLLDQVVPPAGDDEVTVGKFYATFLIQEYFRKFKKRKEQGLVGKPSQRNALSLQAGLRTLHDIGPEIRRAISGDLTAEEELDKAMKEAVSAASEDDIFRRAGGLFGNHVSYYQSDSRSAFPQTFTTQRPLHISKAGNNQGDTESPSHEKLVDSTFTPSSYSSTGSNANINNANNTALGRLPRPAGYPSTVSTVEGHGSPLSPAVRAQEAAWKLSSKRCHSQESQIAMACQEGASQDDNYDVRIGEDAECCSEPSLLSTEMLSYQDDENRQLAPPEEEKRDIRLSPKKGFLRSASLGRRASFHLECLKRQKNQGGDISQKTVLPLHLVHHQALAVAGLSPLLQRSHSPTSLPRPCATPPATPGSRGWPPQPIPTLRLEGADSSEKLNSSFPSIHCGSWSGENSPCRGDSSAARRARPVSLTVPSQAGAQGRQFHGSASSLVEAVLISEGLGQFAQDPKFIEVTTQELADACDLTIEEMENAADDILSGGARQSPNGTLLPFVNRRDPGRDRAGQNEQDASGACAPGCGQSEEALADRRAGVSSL
# hKv1.5, sequence (P22460 whole entry): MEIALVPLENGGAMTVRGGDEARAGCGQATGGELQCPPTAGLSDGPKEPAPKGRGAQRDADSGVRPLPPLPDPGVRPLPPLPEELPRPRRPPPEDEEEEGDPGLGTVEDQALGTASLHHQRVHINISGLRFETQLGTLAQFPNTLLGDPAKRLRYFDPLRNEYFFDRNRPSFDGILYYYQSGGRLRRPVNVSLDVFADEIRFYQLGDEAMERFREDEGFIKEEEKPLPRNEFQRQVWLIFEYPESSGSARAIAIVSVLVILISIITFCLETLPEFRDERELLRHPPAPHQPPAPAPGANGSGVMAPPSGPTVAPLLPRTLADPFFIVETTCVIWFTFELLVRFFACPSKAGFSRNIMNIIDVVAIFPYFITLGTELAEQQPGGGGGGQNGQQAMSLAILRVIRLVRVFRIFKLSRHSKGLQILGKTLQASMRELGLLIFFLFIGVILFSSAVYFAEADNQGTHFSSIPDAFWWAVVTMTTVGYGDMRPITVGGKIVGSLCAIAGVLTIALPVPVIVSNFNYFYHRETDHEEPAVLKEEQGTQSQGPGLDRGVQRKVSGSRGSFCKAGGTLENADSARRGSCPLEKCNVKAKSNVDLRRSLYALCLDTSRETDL
# mKv1.3, sequence (P16390 whole entry): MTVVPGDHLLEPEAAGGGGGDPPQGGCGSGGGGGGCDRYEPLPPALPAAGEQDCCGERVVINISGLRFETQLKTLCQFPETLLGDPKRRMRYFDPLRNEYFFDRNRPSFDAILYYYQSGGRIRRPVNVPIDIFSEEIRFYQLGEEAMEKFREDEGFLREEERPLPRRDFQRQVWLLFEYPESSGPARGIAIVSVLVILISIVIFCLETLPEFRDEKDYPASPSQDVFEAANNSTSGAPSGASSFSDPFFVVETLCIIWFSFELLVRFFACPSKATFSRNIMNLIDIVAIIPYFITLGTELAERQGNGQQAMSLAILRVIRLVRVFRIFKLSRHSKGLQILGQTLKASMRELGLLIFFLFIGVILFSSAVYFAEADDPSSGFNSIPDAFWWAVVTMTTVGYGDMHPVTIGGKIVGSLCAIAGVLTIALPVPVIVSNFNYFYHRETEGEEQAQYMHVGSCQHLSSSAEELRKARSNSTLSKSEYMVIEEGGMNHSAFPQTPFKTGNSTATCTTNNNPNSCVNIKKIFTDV
smiles,measurement,setting,value
"Nc1nc2c(ccc3ccccc32)s1 [SKA-31, naphtho[1,2-d]thiazol-2-ylamine]",effect on KCa1.1 current at 25 μM,[1],No effect at 25 μM
same,Kv1.1 block at 25 μM,[2],No effect at 25 μM
same,Kv1.3 block at 25 μM,[3],20 ± 5% block at 25 μM
same,Kv1.5 block at 25 μM,[4],20 ± 5% block at 25 μM
same,Kv4.2 block at 25 μM,[5],No effect at 25 μM
same,K2P2.1 (TREK-1) effect at 25 μM,[6],No effect at 25 μM
same,Nav1.4 block at 25 μM,[7],20 ± 5 % block at 25 μM
same,Cav1.2 block at 25 μM,[8],No effect at 25 μM
same,effect in NMDA receptor binding assay at 25 μM,[9],no effect
same,cytotoxicity,[10],not cytotoxic
same,Tmax,"[11]; male, Sprague-Dawley, plasma, ip, 30 mg/kg",2 h
same,concentration at 1 h,[11]; [20],5000 nM
same,concentration at 24 h,[11]; [20],2500 nM
same,concentration at 48 h,[11]; [20],2000 nM
same,concentration at 80 h,[11]; [20],2000 nM
same,peak total plasma concentration,[11]; i.p. 10 mg/kg,25 µM
same,plasma concentrations higher than tissue concentrations,"[11]; i.p. 10 mg/kg, 2 h (plasma peak)",4–8 fold
same,peak total plasma concentration,[11]; i.p. 30 mg/kg,37 µM
same,"total plasma concentration, peak at 3 min","[11]; i.v. 10 mg/kg, 3 min",30 µM
same,unbound (free) fraction,[12]; rat plasma spiked with 10 μM,61 ± 1.7% and 61%
same,"fraction unbound at 15 min, 10 μM","[12]; rat, plasma",0.61
same,effect on carotid artery diameter in the absence of acetylcholine,[13]; 0.01 to 1 μM,did not dilate or contract
same,potentiation of residual KCa2.3-mediated EDHF-type response,"[13]; carotid arteries of KCa3.1−/− mice, 0.1 to 1 μM",did not potentiate
same,increase in EDHF-type dilation at 1 μM,"[13]; wt carotid artery, 100 nM acetylcholine, 1 μM",two- to three-fold increase in dilation
same,MAP over 24 h,"[14]; KCa3.1−/− mice, 10 mg/kg i.p.",104.3 ± 1.5 mmHg
same,MAP over 24 h,"[14]; KCa3.1−/− mice, 30 mg/kg i.p.",102.9 ± 0.6 mmHg
same,effect on mean arterial pressure (MAP),"[14]; KCa3.1−/− mice, 10 and 30 mg/kg i.p.",no blood pressure lowering effects
same,effect on heart rate,[14]; any of the groups,did not alter heart rate
same,effect on mean arterial pressure (MAP),"[14]; normotensive wt mice, 1 mg/kg i.p.",ineffective
same,lowering of mean arterial pressure (MAP),"[14]; normotensive wt mice, 10 mg/kg i.p.",4 mmHg
same,lowering of mean arterial pressure (MAP),"[14]; normotensive wt mice, 30 mg/kg i.p.",6 mmHg
same,MAP over 24 h,"[14]; wt mice, 1 mg/kg i.p.",99.0 ± 2.0 mmHg
same,MAP over 24 h,"[14]; wt mice, 10 mg/kg i.p.",95.8 ± 1.3 mmHg
same,MAP over 24 h,"[14]; wt mice, 30 mg/kg i.p.",94.1 ± 1.3 mmHg
same,MAP,"[15]; Ang-II hypertensive wt mice, mean ± SEM",120 ± 4 mmHg
same,lowering of mean arterial pressure (MAP),"[15]; angiotensin-II-induced hypertension, wt mice",12 mmHg
same,"protection from seizures, maximal electroshock (MES) model",[16],effectively protect mice from seizures
same,"protection from seizures, 6 Hz minimal electroshock model",[17],effectively protect mice from seizures
same,logP,[18],2.2
same,Kv11.1 (HERG) block at 25 μM,[19],No effect at 25 μM
